Data on 31 compounds can be found in patent US20260159499A1, “COMPOUND AS FAK INHIBITOR AND USE THEREOF” (WIGEN BIOMEDICINE TECHNOLOGY (SHANGHAI) CO., LTD., priority 2021, published 2026).

pIC50: −log10 of the molar value.

One experiment deals with FAK recombinant protein (Homo sapiens, UniProt Q05397). The experiment in a line: Inhibitory activity against FAK enzyme. The experiment is classed as biochemical. Conditions: TK substrate, ATP. On the procedure: The compound serially diluted with DMSO and a FAK recombinant protein were mixed, and the mixture was left to stand at room temperature for 10 min. A biotin-labeled TK substrate (TK) and ATP were then added. […] After the mixture was incubated at room temperature for 1 h, the fluorescence intensity at 615 nm and 665 nm was measured. The ratio of the fluorescence intensity at 665 nm and 615 nm was calculated. The inhibition percentages and IC50 of the compounds were calculated compared to the DMSO control group.

Experiment [1] has as its system PC3 cells. As to the kind of experiment: PC3 cell proliferation, 3D activity detection. The experiment is classed as cell-based, human. Conditions: Homo sapiens, PC-3, 336 h; PC3, 3D culture, 14 days, class symbol; read-out: 3D IC50 against PC3 cells. The protocol: 3D activity detection: PC3 cells were seeded in a 96-well plate at 1200 cells/well, and 3D culture was performed. 14 days after the compound serially diluted was added, the growth of the cells was determined. The inhibition percentage and IC50 of the compound were calculated compared to the DMSO control group.

Experiment [2] relates to PC3 cells. As to the kind of experiment: PC3 cell proliferation, 2D activity detection. The experiment is classed as cell-based, human. Conditions: Homo sapiens, PC-3; PC3, 2D, 72 h, class symbol; read-out: 2D IC50 against PC3 cells. On the procedure: 2D activity detection: 1200 PC3 cells were seeded in a 96-well plate. After overnight adherence culture, the compound serially diluted was added. 72 h after addition, Cell Titer-Lumi (Beyotime C0068XL) was added to measure the ATP content in the cells. The growth of the cells was evaluated, and IC50 of the compounds against cell growth was calculated.

FAK recombinant protein, sequence (Q05397 whole entry, species assumed): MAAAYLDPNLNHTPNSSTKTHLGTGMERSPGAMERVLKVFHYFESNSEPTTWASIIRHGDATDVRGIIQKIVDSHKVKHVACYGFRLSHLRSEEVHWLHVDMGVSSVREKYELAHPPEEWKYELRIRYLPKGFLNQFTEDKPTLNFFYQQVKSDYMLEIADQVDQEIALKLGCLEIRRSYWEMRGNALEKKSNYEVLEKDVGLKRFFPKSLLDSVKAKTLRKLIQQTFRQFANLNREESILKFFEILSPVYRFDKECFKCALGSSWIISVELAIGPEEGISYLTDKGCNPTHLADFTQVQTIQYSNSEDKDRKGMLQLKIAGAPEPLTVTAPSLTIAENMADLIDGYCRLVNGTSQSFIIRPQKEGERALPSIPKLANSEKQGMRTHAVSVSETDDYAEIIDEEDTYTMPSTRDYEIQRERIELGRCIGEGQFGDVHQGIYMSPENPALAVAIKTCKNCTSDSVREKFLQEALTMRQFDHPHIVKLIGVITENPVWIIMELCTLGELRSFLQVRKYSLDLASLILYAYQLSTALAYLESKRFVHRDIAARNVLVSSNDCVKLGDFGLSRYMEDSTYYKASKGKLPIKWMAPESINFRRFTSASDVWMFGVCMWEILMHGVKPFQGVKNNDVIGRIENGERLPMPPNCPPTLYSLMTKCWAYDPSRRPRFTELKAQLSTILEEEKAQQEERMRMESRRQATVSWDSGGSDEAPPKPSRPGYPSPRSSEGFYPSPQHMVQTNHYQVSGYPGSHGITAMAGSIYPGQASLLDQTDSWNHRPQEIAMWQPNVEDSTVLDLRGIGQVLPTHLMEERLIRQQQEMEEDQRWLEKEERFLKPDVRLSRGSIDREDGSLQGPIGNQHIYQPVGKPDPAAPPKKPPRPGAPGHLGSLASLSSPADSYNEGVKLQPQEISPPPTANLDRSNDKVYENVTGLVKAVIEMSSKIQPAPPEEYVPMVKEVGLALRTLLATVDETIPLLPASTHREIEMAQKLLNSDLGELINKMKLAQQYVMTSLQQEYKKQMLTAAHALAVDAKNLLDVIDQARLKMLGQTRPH

Regarding `COc1cc(C(=O)NC2CC3(CCN(C)CC3)C2)ccc1Nc1ncc(C(F)(F)F)c(Oc2cccc3c2C(=O)N(C)C3)n1` [Compound 45], the figures for the pIC50 on FAK recombinant protein, in the experiment with PC3 cells [1] and in the experiment on PC3 cells [2] were more than 8.00, more than 8.30 and less than 5.70, respectively.

Regarding `COc1cc(C(=O)NC2CCC3(CC2)CN(C)C3)ccc1Nc1ncc(C(F)(F)F)c(Oc2cccc3c2C(=O)N(C)C3)n1` [Compound 46], the negative logarithm of the IC50 (pIC50) (commonly −log10 of the IC50, conventionally taken in molar units) on FAK recombinant protein is more than 8.00; in the experiment on PC3 cells [1], 7.30 to 8.30; with PC3 cells [2], less than 5.70.

As to `[2H]C([2H])([2H])N1CCC2(CC1)CC(NC(=O)c1cc(OC)c(Nc3ncc(C(F)(F)F)c(Oc4cccc5c4C(=O)N(C)C5)n3)cc1F)C2` [Compound 47], the figures for the pIC50 at FAK recombinant protein, in the experiment with PC3 cells [1] and in the experiment on PC3 cells [2] were more than 8.00, more than 8.30 and less than 5.70, respectively.

`[2H]C([2H])([2H])N1CC2(CCC(NC(=O)c3cc(OC)c(Nc4ncc(C(F)(F)F)c(Oc5cccc6c5C(=O)N(C)C6)n4)cc3F)CC2)C1` [Compound 48]: the pIC50 on FAK recombinant protein is more than 8.00; in the experiment with PC3 cells [1], 7.30 to 8.30; in the experiment with PC3 cells [2] it was less than 5.70.

In the case of `COc1cc(C(=O)NC2CC3(CCN(C)CC3)C2)c(F)cc1Nc1ncc(C(F)(F)F)c(Cc2cccc3c2C(=O)N(C)C3)n1` [Compound 49, 2-fluoro-5-methoxy-4-((4-((2-methyl-3-oxoisoindolin-4-yl)methyl)-5-(trifluoromethyl)pyrimidin-2-yl)amino)-N-(7-methyl-7-azaspiro[3.5]nonan-2-yl)benzamide], the negative logarithm of the IC50 (pIC50) is more than 8.00 on FAK recombinant protein, more than 8.30 in the experiment with PC3 cells [1] and less than 5.70 in the experiment on PC3 cells [2].

For `COc1cc(C(=O)NC2CCC3(CC2)CN(C)C3)c(F)cc1Nc1ncc(C(F)(F)F)c(Cc2cccc3c2C(=O)N(C)C3)n1` [Compound 50], the figures for the pIC50 on FAK recombinant protein, with PC3 cells [1] and in the experiment with PC3 cells [2] were more than 8.00, 7.30 to 8.30 and less than 5.70, respectively.

Consider `COc1cc(C(=O)NC2CCC3(CC2)CCN(C)C3)c(F)cc1Nc1ncc(C(F)(F)F)c(Cc2cccc3c2C(=O)N(C)C3)n1` (stereo not drawn) [Compound 53], for which the pIC50 on FAK recombinant protein is more than 8.00; in the experiment with PC3 cells [1] it was 7.30 to 8.30; in the experiment on PC3 cells [2] it was less than 5.70.

Consider `COc1cc(C(=O)NC2CCC3(CC2)CCN(C)CC3)c(F)cc1Nc1ncc(C(F)(F)F)c(Cc2cccc3c2C(=O)N(C)C3)n1` [Compound 54], for which the values for the negative-log IC50 (pIC50) at FAK recombinant protein, with PC3 cells [1] and with PC3 cells [2] were 7.30 to 8.00, 7.30 to 8.30 and less than 5.70, respectively.

With `COc1cc(C(=O)NC2CC3(CCN(C)CC3)C2)c(Cl)cc1Nc1ncc(C(F)(F)F)c(Cc2cccc3c2C(=O)N(C)C3)n1` [Compound 55], the pIC50 on FAK recombinant protein is more than 8.00; with PC3 cells [1] it was more than 8.30; with PC3 cells [2], less than 5.70.

Consider `COc1cc(C(=O)NC2CCC3(CC2)CN(C)C3)c(Cl)cc1Nc1ncc(C(F)(F)F)c(Cc2cccc3c2C(=O)N(C)C3)n1` [Compound 56], for which the pIC50 was more than 8.00 on FAK recombinant protein, 7.30 to 8.30 in the experiment on PC3 cells [1] and less than 5.70 in the experiment on PC3 cells [2].

Consider `COc1cc(C(=O)NC2CC3(CCN(C)CC3)C2)ccc1Nc1ncc(C(F)(F)F)c(Cc2cccc3c2C(=O)N(C)C3)n1` [Compound 57], for which the negative-log IC50 (pIC50) at FAK recombinant protein was more than 8.00; in the experiment with PC3 cells [1] it was more than 8.30; in the experiment with PC3 cells [2], less than 5.70.

Take `COc1cc(C(=O)NC2CCC3(CC2)CN(C)C3)ccc1Nc1ncc(C(F)(F)F)c(Cc2cccc3c2C(=O)N(C)C3)n1` [Compound 58]: the figures for the pIC50 at FAK recombinant protein, in the experiment with PC3 cells [1] and in the experiment on PC3 cells [2] were more than 8.00, 7.30 to 8.30 and less than 5.70, respectively.

`COc1cc(N2CCC3(CCN(C)CC3)C2=O)c(F)cc1Nc1ncc(C(F)(F)F)c(Oc2cccc3c2C(=O)N(C)C3)n1` [Compound 61, 2-(2-fluoro-5-methoxy-4-((4-((2-methyl-3-oxoisoindol-4-yl)oxy)-5-(trifluoromethyl)pyrimidin-2-yl)amino)phenyl)-8-methyl-2,8-diazaspiro[4.5]decan-1-one]: the pIC50 on FAK recombinant protein is more than 8.00; with PC3 cells [1] it was 7.30 to 8.30; with PC3 cells [2], less than 5.70.

With `COc1cc(N2CC3(CCN(C)CC3)OC2=O)c(F)cc1Nc1ncc(C(F)(F)F)c(Oc2cccc3c2C(=O)N(C)C3)n1` [Compound 63], the negative-log IC50 (pIC50) at FAK recombinant protein was 7.30 to 8.00; in the experiment on PC3 cells [1] it was 7.30 to 8.30; in the experiment with PC3 cells [2] it was less than 5.70.

In the case of `COc1cc(N2CC3(CCC2=O)CCN(C)CC3)c(F)cc1Nc1ncc(C(F)(F)F)c(Oc2cccc3c2C(=O)N(C)C3)n1` [Compound 65], the pIC50 is less than 7.30 on FAK recombinant protein, less than 7.30 in the experiment on PC3 cells [1] and less than 5.70 in the experiment on PC3 cells [2].

With `COc1cc(C2=NOC3(CCN(C)CC3)C2)ccc1Nc1ncc(C(F)(F)F)c(Oc2cccc3c2C(=O)N(C)C3)n1` [Compound 68], the pIC50 at FAK recombinant protein is 7.30 to 8.00; in the experiment with PC3 cells [1], 7.30 to 8.30; in the experiment on PC3 cells [2], less than 5.70.

On to `COc1cc(C(=O)NC2CC3(CCN(C)CC3)C2)c(F)cc1Nc1ncc(C(F)(F)F)c(Oc2cccc3c2C(=O)N(C)C3C)n1` (stereo not drawn) [Compound 70, 4-((4-((1,2-dimethyl-3-oxoisoindol-4-yl)oxy)-5-(trifluoromethyl)pyrimidin-2-yl)amino)-2-fluoro-5-methoxy-N-(7-methyl-7-azaspiro[3.5]nonan-2-yl)benzamide], for which the results for the pIC50 on FAK recombinant protein, in the experiment with PC3 cells [1] and in the experiment with PC3 cells [2] were more than 8.00, more than 8.30 and less than 5.70, respectively.

Turning to `COc1cc(C(=O)NC2CC3(CCN(C)CC3)C2)ccc1Nc1ncc(C(F)(F)F)c(Oc2cccc3c2C(=O)N(C)C3C)n1` (stereo not drawn) [Compound 72], the values for the pIC50 at FAK recombinant protein, in the experiment with PC3 cells [1] and in the experiment on PC3 cells [2] were more than 8.00, more than 8.30 and less than 5.70, respectively.

As to `COc1cc(C(=O)NC2CCC3(CC2)CN(C)C3)ccc1Nc1ncc(C(F)(F)F)c(Oc2cccc3c2C(=O)N(C)C3C)n1` (stereo not drawn) [Compound 73], the pIC50 at FAK recombinant protein is more than 8.00; with PC3 cells [1], 7.30 to 8.30; in the experiment with PC3 cells [2], less than 5.70.

As to `COc1cc(C(=O)NC2CC3(CCN(C)CC3)C2)c(F)cc1Nc1ncc(C(F)(F)F)c(Cc2cccc3c2C(=O)N(C)C3C)n1` (stereo not drawn) [Compound 74, 4-((4-((1,2-dimethyl-3-oxoisoindol-4-yl)methyl)-5-(trifluoromethyl)pyrimidin-2-yl)amino)-2-fluoro-5-methoxy-N-(7-methyl-7-azaspiro[3.5]nonan-2-yl)benzamide], the pIC50 at FAK recombinant protein is more than 8.00; with PC3 cells [1], 7.30 to 8.30; in the experiment with PC3 cells [2], less than 5.70.

Consider `COc1cc(C(=O)NC2CC3(CCN(C)CC3)C2)ccc1Nc1ncc(C(F)(F)F)c(Cc2cccc3c2C(=O)N(C)C3C)n1` (stereo not drawn) [Compound 75], for which the pIC50 at FAK recombinant protein was more than 8.00; in the experiment on PC3 cells [1], 7.30 to 8.30; in the experiment with PC3 cells [2] it was less than 5.70.

`COc1cc(C(=O)NC2CC3(CCN(C)CC3)C2)c(F)cc1Nc1ncc(C(F)(F)F)c(Oc2cccc3c2C(=O)N(C)C3(C)C)n1` [Compound 76]: the pIC50 at FAK recombinant protein is more than 8.00; in the experiment on PC3 cells [1] it was 7.30 to 8.30; in the experiment on PC3 cells [2], less than 5.70.

On to `COc1cc(C(=O)NC2CCC3(CC2)CN(C)C3)c(F)cc1Nc1ncc(C(F)(F)F)c(Oc2cccc3c2C(=O)N(C)C3(C)C)n1` [Compound 77], for which the results for the negative logarithm of the IC50 (pIC50) on FAK recombinant protein, in the experiment with PC3 cells [1] and in the experiment with PC3 cells [2] were more than 8.00, 7.30 to 8.30 and less than 5.70, respectively.

Turning to `COc1cc(C(=O)NC2CC3(CCN(C)CC3)C2)ccc1Nc1ncc(C(F)(F)F)c(Oc2cccc3c2C(=O)N(C)C3(C)C)n1` [Compound 78], the pIC50 is more than 8.00 at FAK recombinant protein, 7.30 to 8.30 with PC3 cells [1] and less than 5.70 with PC3 cells [2].

`COc1cc(C(=O)NC2CC3(CCN(C)CC3)C2)c(F)cc1Nc1ncc(C(F)(F)F)c(Oc2cccc3c2C(=O)N(OC)C3)n1` [Compound 79]: the figures for the negative-log IC50 (pIC50) on FAK recombinant protein, in the experiment on PC3 cells [1] and in the experiment with PC3 cells [2] were more than 8.00, more than 8.30 and less than 5.70, respectively.

As for `COc1cc(C(=O)NC2CC3(CCN(C)CC3)C2)ccc1Nc1ncc(C(F)(F)F)c(Oc2cccc3c2C(=O)N(OC)C3)n1` [Compound 81], the results for the pIC50 at FAK recombinant protein, with PC3 cells [1] and in the experiment on PC3 cells [2] were more than 8.00, more than 8.30 and less than 5.70, respectively.

For `COc1cc(C(=O)NC2CC3(CCN(C)CC3)C2)c(F)cc1Nc1ncc(C(F)(F)F)c(Oc2cccc3c2C(=O)CC3)n1` [Compound 82], the pIC50 was more than 8.00 at FAK recombinant protein, 7.30 to 8.30 in the experiment on PC3 cells [1] and less than 5.70 in the experiment with PC3 cells [2].

As for `COc1cc(C(=O)NC2CC3(CCN(C)CC3)C2)ccc1Nc1ncc(C(F)(F)F)c(Oc2cccc3c2C(=O)CC3)n1` [Compound 83], the results for the negative logarithm of the IC50 (pIC50) at FAK recombinant protein, with PC3 cells [1] and in the experiment on PC3 cells [2] were more than 8.00, 7.30 to 8.30 and less than 5.70, respectively.

Consider `COc1cc(C(=O)NC2CC3(CCN(C)CC3)C2)c(F)cc1Nc1ncc(C(F)(F)F)c(Cc2cccc3c2C(=O)CC3)n1` [Compound 84], for which the values for the pIC50 at FAK recombinant protein, with PC3 cells [1] and in the experiment with PC3 cells [2] were more than 8.00, 7.30 to 8.30 and less than 5.70, respectively.

`CCc1cc(C(=O)NC2CC3(CCN(C)CC3)C2)c(F)cc1Nc1ncc(C(F)(F)F)c(Oc2cccc3c2C(=O)N(C)C3)n1` [Compound 85, 2-fluoro-4-((4-((2-methyl-3-oxoisoindol-4-yl)oxy)-5-(trifluoromethyl)pyrimidin-2-yl)amino)-N-(7-methyl-7-azaspiro[3.5]nonan-2-yl)-5-ethylbenzamide]: the negative logarithm of the IC50 (pIC50) at FAK recombinant protein is 7.30 to 8.00; in the experiment with PC3 cells [1], 7.30 to 8.30; in the experiment with PC3 cells [2], less than 5.70.

Regarding `COc1cc(C(=O)NC2CC3(CCN(C)CC3)C2)c(-c2cnn(C)c2)cc1Nc1ncc(C(F)(F)F)c(Oc2cccc3c2C(=O)N(C)C3)n1` [Compound 88], the negative logarithm of the IC50 (pIC50) is 7.30 to 8.00 on FAK recombinant protein, 7.30 to 8.30 with PC3 cells [1] and less than 5.70 in the experiment on PC3 cells [2].
